Like-named read-outs stand apart in the source and are kept apart here.
How the values were obtained:
[1] = target: PD-1/PD-L1 protein/protein interaction (recombinant human PD-L1 and human PD-1) (Homo sapiens (Human), UniProt Q9NZQ7); test: Homogeneous Time-Resolved Fluorescence (HTRF) PD-1/PD-L1 binding assay
Method in brief: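 Human PD-L1 (19-238, C-His; 10 nM final) and PD-1 (25-167, C-Fc; 3 nM final) preincubated 40 min with inhibitor in PBS pH 7.4, 0.05% Tween-20, 0.1% BSA, 1% DMSO, 25 °C. Eu-anti-human IgG (1 nM) and anti-His-APC (20 nM) added for 60 min; 665/620 nm ratio; IC50 from percent-control curves.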

[2] = system: U2OS/PD-L1 cells and Jurkat-PD-1-SHP cells; test: Src homology region 2 domain-containing phosphatase (SHP) assay; assay type: cell-based
Method in brief: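 U2OS/PD-L1 and Jurkat-PD-1-SHP cells (5000 each per well) were co-incubated with compound for 2 h at 37 °C in RPMI1640 with 1% FBS, 0.05% DMSO final. PathHunter chemiluminescence was read after 1 h at room temperature, and IC50 was fitted from percent of DMSO-control activity.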

[3] = system: PD-L1 aAPC/CHO-K1 cells and Jurkat-PD-1-NFAT effector cells; test: Nuclear factor of activated T-cells (NFAT) assay; assay type: cell-based
Method in brief: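 CHO-K1 cells expressing PD-L1 aAPC were co-cultured with Jurkat-PD-1-NFAT effector cells in RPMI 1640 with 1% FBS and compound (0.4% DMSO; top concentration 2 μM) for 24 h at 37 °C. Bio-Glo luminescence was read, fold induction normalised to DMSO wells, and EC50 fitted from percent of control compound activity.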

PD-L1 = PD-L1 (Homo sapiens (Human), UniProt Q9NZQ7); test: PD-L1 whole blood internalization assay; assay type: cell-based; conditions: 24 HR, PD-L1 expression on CD14+ cells, human interferon γ
Procedure: Example D. PD-L1 Whole Blood Internalization Assay
To determine PD-L1 internalization in human whole blood, normal human blood (Biological Specialty Corp, Colmar. Pa.) was incubated in the presence or absence of a concentration range of test compounds and 1 ng/ml human interferon γ (R&D Systems Inc. Minn. […] Blood was then stained with PD-L1 (MIH1, eBioscience; or BD Biosciences San Jose, Calif.), CD14 (Life Technologies, Carlsbad, Calif.) for 30 minutes in the dark at room temperature. Whole Blood/red cells were lysed/fixed (lysis buffer BD Biosciences) for 5 minutes at 37° C. in the dark and then centrifuged at 1600 RPM for 5 minutes. Cells were resuspended in Stain Buffer (BD Bioscience, San Jose, Calif.) and transferred into 96 well round bottom plates (Corning). Cells were gated on CD14+(BD Biosciences) and PD-L1 expression determined by mean fluorescence intensity (MFI) (BD LSRFortessa™ X-20). IC50 determination was performed by fitting the curve of compound percent inhibition versus the log of the compound concentration using the GraphPad Prism 7.0 software.

Sequence of PD-1/PD-L1 protein/protein interaction (recombinant human PD-L1 and human PD-1) (Q9NZQ7 19-238): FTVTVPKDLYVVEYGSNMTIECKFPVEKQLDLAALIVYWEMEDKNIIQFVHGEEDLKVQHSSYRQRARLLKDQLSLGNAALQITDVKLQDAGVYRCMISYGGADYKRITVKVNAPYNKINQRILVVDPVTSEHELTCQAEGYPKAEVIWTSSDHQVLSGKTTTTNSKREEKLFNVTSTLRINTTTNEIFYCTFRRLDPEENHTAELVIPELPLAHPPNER
Sequence of PD-L1 (Q9NZQ7 19-290): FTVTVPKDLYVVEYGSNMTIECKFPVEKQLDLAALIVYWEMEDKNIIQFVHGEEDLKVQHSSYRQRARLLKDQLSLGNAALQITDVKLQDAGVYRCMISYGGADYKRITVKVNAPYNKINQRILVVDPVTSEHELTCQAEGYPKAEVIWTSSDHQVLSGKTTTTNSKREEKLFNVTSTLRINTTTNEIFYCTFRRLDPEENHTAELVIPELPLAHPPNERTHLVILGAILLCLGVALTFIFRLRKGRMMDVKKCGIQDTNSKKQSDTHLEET

Cc1c(NC(=O)c2nc3c(n2C)CCN(CCC24CCC(C(=O)O)(CC2)C4)C3)cccc1-c1cccc(NC(=O)c2nc3c(n2C)CCN(CCc2ccc(C(=O)O)cc2)C3)c1Cl [Example 45, 4-(2-(2-((3′-(5-(4-carboxyphenethyl)-1-methyl-4,5,6,7-tetrahydro-1H-imidazo[4,5-c]pyridine-2-carboxamido)-2′-chloro-2-methyl-[1,1′-biphenyl]-3-yl)carbamoyl)-1-methyl-1,4,6,7-tetrahydro-5H-imidazo[4,5-c]pyridin-5-yl)ethyl)bicyclo[2.2.1]heptane-1-carboxylic acid]
IC50 [1]: 5 to 10 nM | IC50 ([2]; Homo sapiens, U2OS): ≤ 10 nM | EC50 ([3]; Cricetulus griseus, CHO-K1): 10 to 100 nM | IC50 (PD-L1): 100 to 500 nM

Cc1c(NC(=O)c2nc3c(n2C)CCN(CCC24CCC(C(=O)O)(CC2)C4)C3)cccc1-c1cccc(NC(=O)c2nc3c(n2C)CCN(C[C@H](C)O)C3)c1C [Example 58, (S)-4-(2-(2-((3′-(5-(2-hydroxypropyl)-1-methyl-4,5,6,7-tetrahydro-1H-imidazo[4,5-c]pyridine-2-carboxamido)-2,2′-dimethyl-[1,1′-biphenyl]-3-yl)carbamoyl)-1-methyl-1,4,6,7-tetrahydro-5H-imidazo[4,5-c]pyridin-5-yl)ethyl)bicyclo[2.2.1]heptane-1-carboxylic acid]
IC50 [1]: ≤ 5 nM | IC50 ([2]; Homo sapiens, U2OS): ≤ 10 nM | EC50 ([3]; Cricetulus griseus, CHO-K1): 10 to 100 nM | IC50 (PD-L1): 100 to 500 nM

Cc1c(NC(=O)c2nc3c(n2C)CCN(CCC24CCC(C(=O)O)(CC2)C4)C3)cccc1-c1cccc(NC(=O)c2nc3c(n2C)CCN(C2CCOCC2)C3)c1C [Example 56, 4-(2-(2-((2,2′-dimethyl-3′-(1-methyl-5-(tetrahydro-2H-pyran-4-yl)-4,5,6,7-tetrahydro-1H-imidazo[4,5-c]pyridine-2-carboxamido)-[1,1′-biphenyl]-3-yl)carbamoyl)-1-methyl-1,4,6,7-tetrahydro-5H-imidazo[4,5-c]pyridin-5-yl)ethyl)bicyclo[2.2.1]heptane-1-carboxylic acid]
IC50 [1]: ≤ 5 nM | IC50 ([2]; Homo sapiens, U2OS): ≤ 10 nM | EC50 ([3]; Cricetulus griseus, CHO-K1): 10 to 100 nM | IC50 (PD-L1): 100 to 500 nM

Cc1c(NC(=O)c2nc3c(n2C)CCN(CCC24CCC(C(=O)O)(CC2)C4)C3)cccc1-c1cccc(NC(=O)c2nc3c(n2C)CCN(C[C@@H](C)O)C3)c1C [Example 57, (R)-4-(2-(2-((3′-(5-(2-hydroxypropyl)-1-methyl-4,5,6,7-tetrahydro-1H-imidazo[4,5-c]pyridine-2-carboxamido)-2,2′-dimethyl-[1,1′-biphenyl]-3-yl)carbamoyl)-1-methyl-1,4,6,7-tetrahydro-5H-imidazo[4,5-c]pyridin-5-yl)ethyl)bicyclo[2.2.1]heptane-1-carboxylic Acid]
IC50 [1]: ≤ 5 nM | IC50 ([2]; Homo sapiens, U2OS): ≤ 10 nM | EC50 ([3]; Cricetulus griseus, CHO-K1): 10 to 100 nM | IC50 (PD-L1): 10 to 100 nM

Cn1c(C(=O)Nc2cccc(-c3cccc(NC(=O)c4nc5c(n4C)CCN(CCC46CCC(C(=O)O)(CC4)C6)C5)c3Cl)c2Cl)nc2c1CCN(CCO)C2 [Example 15, 4-(2-(2-((2,2′-dichloro-3′-(5-(2-hydroxyethyl)-1-methyl-4,5,6,7-tetrahydro-1H-imidazo[4,5-c]pyridine-2-carboxamido)-[1,1′-biphenyl]-3-yl)carbamoyl)-1-methyl-1,4,6,7-tetrahydro-5H-imidazo[4,5-c]pyridin-5-yl)ethyl)bicyclo[2.2.1]heptane-1-carboxylic acid]
IC50 [1]: ≤ 5 nM | IC50 ([2]; Homo sapiens, U2OS): ≤ 10 nM | EC50 ([3]; Cricetulus griseus, CHO-K1): 10 to 100 nM | IC50 (PD-L1): 10 to 100 nM

Cn1c(C(=O)Nc2cccc(-c3cccc(NC(=O)c4nc5c(n4C)CCN(C4CCC(O)CC4)C5)c3Cl)c2Cl)nc2c1CCN(CCC13CCC(C(=O)O)(CC1)C3)C2 (single isomer, unassigned) [60 (compound 2), 4-(2-(2-((2,2′-dichloro-3′-(5-(4-hydroxycyclohexyl)-1-methyl-4,5,6,7-tetrahydro-1H-imidazo[4,5-c]pyridine-2-carboxamido)-[1,1′-biphenyl]-3-yl)carbamoyl)-1-methyl-1,4,6,7-tetrahydro-5H-imidazo[4,5-c]pyridin-5-yl)ethyl)bicyclo[2.2.1]heptane-1-carboxylic Acid]
IC50 [1]: ≤ 5 nM | IC50 [2]: ≤ 10 nM | EC50 [3]: ≤ 10 nM | IC50 (PD-L1): 10 to 100 nM

Cn1c(C(=O)Nc2cccc(-c3cccc(NC(=O)c4nc5c(n4C)CCN(CCC46CCC(C(=O)O)(CC4)C6)C5)c3Cl)c2Cl)nc2c1CCN(CCCC(=O)O)C2 [Example 20, 4-(2-(2-((3′-(5-(3-carboxypropyl)-1-methyl-4,5,6,7-tetrahydro-1H-imidazo[4,5-c]pyridine-2-carboxamido)-2,2′-dichloro-[1,1′-biphenyl]-3-yl)carbamoyl)-1-methyl-1,4,6,7-tetrahydro-5H-imidazo[4,5-c]pyridin-5-yl)ethyl)bicyclo[2.2.1]heptane-1-carboxylic acid]
IC50 [1]: ≤ 5 nM | IC50 ([2]; Homo sapiens, U2OS): ≤ 10 nM | EC50 ([3]; Cricetulus griseus, CHO-K1): 10 to 100 nM | IC50 (PD-L1): 10 to 100 nM

Cn1c(C(=O)Nc2cccc(-c3cccc(NC(=O)c4nc5c(n4C)CCN(CC[C@H]4CC[C@H](C(=O)O)CC4)C5)c3Cl)c2Cl)nc2c1CCN(CCC13CCC(C(=O)O)(CC1)C3)C2 [Example 62, 4-(2-(2-((3′-(5-(2-(trans-4-carboxycyclohexyl)ethyl)-1-methyl-4,5,6,7-tetrahydro-1H-imidazo[4,5-c]pyridine-2-carboxamido)-2,2′-dichloro-[1,1′-biphenyl]-3-yl)carbamoyl)-1-methyl-1,4,6,7-tetrahydro-5H-imidazo[4,5-c]pyridin-5-yl)ethyl)bicyclo[2.2.1]heptane-1-carboxylic acid]
IC50 [1]: ≤ 5 nM | IC50 ([2]; Homo sapiens, U2OS): ≤ 10 nM | EC50 ([3]; Cricetulus griseus, CHO-K1): 10 to 100 nM | IC50 (PD-L1): 10 to 100 nM

Cn1c(C(=O)Nc2cccc(-c3cccc(NC(=O)c4nc5c(n4C)CCN(CC(C)(C)C(=O)O)C5)c3Cl)c2Cl)nc2c1CCN(CCC13CCC(C(=O)O)(CC1)C3)C2 [Example 21, 4-(2-(2-((3′-(5-(2-carboxy-2-methylpropyl)-1-methyl-4,5,6,7-tetrahydro-1H-imidazo[4,5-c]pyridine-2-carboxamido)-2,2′-dichloro-[1,1′-biphenyl]-3-yl)carbamoyl)-1-methyl-1,4,6,7-tetrahydro-5H-imidazo[4,5-c]pyridin-5-yl)ethyl)bicyclo[2.2.1]heptane-1-carboxylic acid]
IC50 [1]: ≤ 5 nM | IC50 ([2]; Homo sapiens, U2OS): ≤ 10 nM | EC50 ([3]; Cricetulus griseus, CHO-K1): 10 to 100 nM | IC50 (PD-L1): 10 to 100 nM

Cc1c(NC(=O)c2nc3c(n2C)CCN(C[C@@H](C)O)C3)cccc1-c1cccc(NC(=O)c2nc3c(n2C)CCN(CCC24CCC(C(=O)O)(CC2)C4)C3)c1Cl [Example 31, (R)-4-(2-(2-((2-chloro-3′-(5-(2-hydroxypropyl)-1-methyl-4,5,6,7-tetrahydro-1H-imidazo[4,5-c]pyridine-2-carboxamido)-2′-methyl-[1,1′-biphenyl]-3-yl)carbamoyl)-1-methyl-1,4,6,7-tetrahydro-5H-imidazo[4,5-c]pyridin-5-yl)ethyl)bicyclo[2.2.1]heptane-1-carboxylic Acid]
IC50 [1]: ≤ 5 nM | IC50 ([2]; Homo sapiens, U2OS): ≤ 10 nM | EC50 ([3]; Cricetulus griseus, CHO-K1): 10 to 100 nM | IC50 (PD-L1): 10 to 100 nM

Cn1c(C(=O)Nc2cccc(-c3cccc(NC(=O)c4nc5c(n4C)CCN([C@H]4CC[C@](C)(C(=O)O)CC4)C5)c3Cl)c2Cl)nc2c1CCN(CCC13CCC(C(=O)O)(CC1)C3)C2 [Example 66, 4-(2-(2-((3′-(5-(trans-4-carboxy-4-methylcyclohexyl)-1-methyl-4,5,6,7-tetrahydro-1H-imidazo[4,5-c]pyridine-2-carboxamido)-2,2′-dichloro-[1,1′-biphenyl]-3-yl)carbamoyl)-1-methyl-1,4,6,7-tetrahydro-5H-imidazo[4,5-c]pyridin-5-yl)ethyl)bicyclo[2.2.1]heptane-1-carboxylic Acid]
IC50 [1]: ≤ 5 nM | IC50 ([2]; Homo sapiens, U2OS): ≤ 10 nM | EC50 ([3]; Cricetulus griseus, CHO-K1): ≤ 10 nM | IC50 (PD-L1): 10 to 100 nM

Cn1c(C(=O)Nc2cccc(-c3cccc(NC(=O)c4nc5c(n4C)CCN(C4CCC(O)CC4)C5)c3Cl)c2Cl)nc2c1CCN(CCC13CCC(C(=O)O)(CC1)C3)C2 (single isomer, unassigned) [60 (compound 1), 4-(2-(2-((2,2′-dichloro-3′-(5-(4-hydroxycyclohexyl)-1-methyl-4,5,6,7-tetrahydro-1H-imidazo[4,5-c]pyridine-2-carboxamido)-[1,1′-biphenyl]-3-yl)carbamoyl)-1-methyl-1,4,6,7-tetrahydro-5H-imidazo[4,5-c]pyridin-5-yl)ethyl)bicyclo[2.2.1]heptane-1-carboxylic Acid]
IC50 [1]: ≤ 5 nM | IC50 ([2]; Homo sapiens, U2OS): ≤ 10 nM | EC50 ([3]; Cricetulus griseus, CHO-K1): ≤ 10 nM | IC50 (PD-L1): 10 to 100 nM

From patent publication US10618916B2, “Heterocyclic compounds as immunomodulators” (Incyte Corporation, priority 2018, dated 2020)
